# Residues, ends and D or L forms follow the SMILES beside them. *: point of attachment. Palmitoyl = CCCCCCCCCCCCCCCC(=O)*; Myristoyl = CCCCCCCCCCCCCC(=O)*
# Columns and labels:
# [1] = test system: Nuclear Factor Kappa B subunit 1 (NFKB1); test: Innate immune response gene expression in HEKa, real time PCR array; format: cell-based, human; settings: 50 μg/ml, 24 h
# Protocol: HEKa cells (Life Technologies) are seeded at 6.0×10^5 cells/well in 6-well plates and incubated in culture medium Epillfe™ with defined Growth Supplement (EDGS, Life Technologies), at 37° C. in a water-saturated atmosphere of 95% air and 5% CO2. After 24 hours of incubation under these conditions, medium is removed and cells are incubated with 50 μg/ml (w/v) of a peptide of the invention (see Table 16) in fresh culture medium keeping two wells where HEKa cells are incubated with medium only (basal conditions) at 37° C. and 5% CO2.
# After 24 h of incubation, the cells are lysed directly in the wells following the protocol described on the RNeasy™ Mini kit (Qiagen) according to the manufacturer's protocol. The lysed cells are homogenized and the RNases are inactivated. The genomic DNA is removed from the samples by using gDNA Eliminator spin columns (Qiagen). Then the samples are passed through special RNA binding columns (Qiagen) and, after several microcentrifugation washes to eliminate contaminants and impurities, the purified RNA is eluted with 50 μl of ultrapure water. Quantification and analysis of purity of RNA samples are performed after RNA elution with a biophotometer (Eppendorf). 1 μg of high-quality RNA is retrotranscribed with iScript™ advanced (BioRad) in a final volume of 20 μl·Complete reaction mix is incubated in a thermal cycler (Eppendorf) at 42° C. for 30 minutes, and the reactions are stopped at 85° C. for 5 minutes. Complementary DNA is amplified by qPCR in a real-time PCR thermocycler (BioRad) using SYBR®Green supermix (BioRad) and a customized plate for use with SYBR®Green (BioRad). SYBR®Green binds to double-stranded DNA molecules and emits fluorescence which is quantified and is proportional to the amount of the product in the PCR reaction. Cycling conditions in BioRad CFX96™ instrument are 95° C. for 3 minutes, followed by 40 cycles of denaturing at 95° C. for 5 seconds, annealing and elongation at 60° C. for 30 seconds. GAPDH (Glyceraldehyde 3-phosphate dehydrogenase), TBP (TATA box binding protein) and HRPT1 (hypoxanthine phosphoribosyltransferase 1) are used as endogenous controls. Fold change relative to the expression of the sample genes and reference genes is calculated using normalized expression (ΔΔ(Ct)) method with default threshold values using CFX Manager Software (BioRad).
# Genes analyzed are Chemokine (C-C motif) Ligand 5 (CCL5), Myeloid Differentiation primary response gene 88 (MyD88), Nuclear Factor Kappa B subunit 1 (NFKB1) and interferon Regulatory Factor 3 (IRF3).
# [2] = test system: Staphylococcus epidermidis; test: Adherence of Staphylococcus epidermidis in keratinocytes (HaCaT) in competition with S. aureus bioparticles; format: cell-based; settings: 50 μg/ml, 24 h, basal = 0
# Protocol: After that treatment, cells are washed with phosphate-buffered saline (PBS, Sigma) and are then incubated with a solution of Staphylococcus epidermidis (ATCC®12228™, Culture Collections) treated with green-fluorescence calcein AM (Life technologic) and Alexa Fluor 594™ Bioparticles Staphylococcus aureus (ThermoFisher) in PBS for 30 minutes at 37° C. and protected from light. At the end of the incubation period, cells are washed with PBS and fixed in 4% (v/v) paraformaldehyde (PFA, Sigma) for 30 minutes. After rinsing with PBS, the nuclei are stained with Hoechst 33342, trihydrochloride trihydrate (ThermoFisher) in PBS for 10 minutes before analysis.
# Cellular imaging is performed by fluorescence microscopy using the Operetta® High Content Imaging System (PerkinElmer). From each fluorescence image, Staphylococcus epidermidis is quantified as a number of spots and normalized against the number of keratinocyte nuclei and the total bacteria number (understood as the addition of detected S. epidermidis spots and S. aureus bioparticles). Each value obtained is normalized respect to basal conditions (non-treated keratinocytes). An image is taken in three different fields per well. 12 representative images from each condition are analyzed with Harmony software (PerkinElmer).
# The normalized percentage of Staphylococcus epidermidis respect to basal conditions in treated keratinocytes is represented in Table 17.
# [3] = test system: Claudin 1 (CLDN1); test: Tight junction gene expression in HEKa, real time PCR array; settings: 50 μg/ml, 24 hours
# Protocol: HEKa cells (Life Technologies) are seeded at 6.0×10^5 cells/well in 6-well plates and incubated in culture medium Epilife™ with defined Growth Supplement (EDGS, Life Technologies) at 37° C. in a water-saturated atmosphere of 95% air and 5% CO2. After 24 hours of incubation under these conditions, medium is removed and cells are incubated with 50 μg/ml of a peptide of the invention (see Table 12) in fresh culture medium, except for two wells where HEKa cells are incubated with medium only (basal conditions), at 37° C. and 5% CO2.
# After 24 hours of incubation, the cells are lysed directly in the wells following the protocol described on the RNeasy™ Mini kit (Qiagen) according to the manufacturer's protocol. The lysed cells are homogenized and the Rnases are inactivated. The genomic DNA is removed from the samples by using gDNA Eliminator spin columns (Qiagen). […] Quantification and analysis of purity of RNA samples are performed after RNA elution with a biophotometer (Eppendorf). […] SYBR Green binds to double-stranded DNA molecules and emits fluorescence which is quantified and is proportional to the amount of the product in the PCR reaction. […] Fold change relative to the expression of the sample genes and reference genes is calculated using normalized expression (ΔΔ(Ct)) method with default threshold values using CFX Manager Software (BioRad).
# [4] = test system: tight junction (TJ) barrier in reconstructed human epidermis (RHE); test: TJ permeability assay, biotin dye penetration in RHE with SDS; format: cell-based; settings: 24 hours, treatment from dermal side
# Protocol: TJ permeability assay using surface biotinylation technique was performed in incubated reconstructed human epidermis (RHE) with EZ-UN Sulfo-NHS-LC-LC-Biotin from the dermal side. The aim of this study is to investigate the ability of peptides of the invention to enhance the barrier function by inhibiting diffusion of the dye through stratum granulosum in presence of sodium dodecyl sulfate (SDS) which causes functional deterioration of TJs.
# SkinEthic human tissue models (EpiSkin) are removed from their agarose-nutrient solution in a multiwell plate immediately after arrival and are placed in a 6-well plate in which each well has previously been filled with SkinEthic Growth Medium (EpiSkin). After overnight incubation at 37° C., 5% CO2, tissue models are treated with 50 μg/ml of peptide Ac-Glu-Glu-Met-Gln-Arg-Arg-Ala-NH2 (PEP-2) and a 0.02 mg/ml sodium dodecyl sulfate (SDS, Sigma) solution in growth medium, (1 ml/well). […]
# Microscopical observations are performed with a Zeiss fluorescence microscope and photographs of each condition are taken with the associated camera. Fluorescence images of biotin are quantified as the product of its area and the intensity mean value of channel ‘EGFP’ Green (excitation: 488 nm and emission: 509 nm) and normalized by basal conditions. At least 12 representative images from each condition are collected and analyzed with the ZEN software (Zeiss). […]
# [5] = test system: stratum corneum barrier in reconstructed human epidermis (RHE); test: Toluidine blue diffusion assay in RHE with SDS; format: cell-based; parameters: key: 4: Strong; 3: Clear; 2: Moderate; 1: Slight; settings: 24 h, SDS 0.02 mg/ml on top layer, peptide 50 μg/ml + SDS
# Protocol: The SkinEthic human tissue models (EpiSkin) are removed from their agarose-nutrient solution in the multiwell plate immediately after arrival and are placed in a 6-well plate in which each well has previously been filled with SkinEthic Growth Medium (EpiSkin). After overnight incubation at 37° C., 5% CO2, the top layer of tissue model is treated with 100 μl of a 50 μg/ml solution of peptide Ac-Glu-Glu-Met-Gln-Arg-Arg-Ala-NH2 (PEP-2) in a 0.02 mg/ml sodium dodecyl sulfate (SDS, Sigma) solution in growth medium and dermal side of tissue model is treated with 1 ml of a 50 μg/ml solution of the same peptide in growth medium. The top layer and dermal side of a tissue model is treated with growth medium as basal condition. In another tissue model, its top layer is treated with a 0.02 mg/ml SDS solution in growth medium while its dermal side is treated with growth medium alone, both in absence of peptide, for its use as a positive control. All incubations are performed at 37° C. and 5% CO2 for 24 h.
# After the 24-hours treatment, the top layer of tissue models are further treated with 200 μl of methanol for 2 min at room temperature and, after that, they are rinsed twice with 200 μl of phosphate-buffered saline (PBS, Sigma). […] At least 12 representative images from each condition are collected and scored according to the ranking described in Table 14. […]
# [6] = test system: Reconstructed Human Epidermis (RHE); test: Lipidomic profile (UPLC-MS) of in vitro epidermal model; format: cell-based; settings: 50 μg/ml, 24 hours, vs basal conditions
# Protocol: The SkinEthic human tissue models (EpiSkin™) are removed from their agarose-nutrient solution in the multiwell plate immediately after arrival and are placed in a 6-well plate in which each well has previously been filled with SkinEthic Growth Medium (EpiSkin™). After overnight incubation at 37° C., 5% CO2, Reconstructed Human Epidermis (RHE) are treated with 50 μg/ml of peptides Ac-Glu-Glu-Met-Gln-Arg-Arg-NH2 (PEP-1), Ac-Glu-Glu-Met-Gln-Arg-Arg-Ala-NH2 (PEP-2) or Ac-Glu-Glu-Met-Gln-Arg-Arg-Ala-Asp-NH2 (PEP-3) or medium (basal conditions) for 24 hours at 37° C. and 5% CO2. After the 24 hours treatment, RHE are frozen and stored at −20° C. Each treatment is applied to five RHE per condition.
# Epidermal membrane model samples are thawed and removed from the inserts using a scalpel and transferred to homogenization tubes. Samples are mixed with sodium chloride (50 mM) and chloroform/methanol (2/1) (v:v) and homogenized. The extraction solvent is spiked with metabolites not detected in unspiked human serum extracts. After homogenizing the samples, extracts are incubated for 1 hour at −20° C. and centrifuged at 18,000×g for 15 minutes. The organic phase is then collected and dried under vacuum. Dried extracts are finally reconstituted in acetonitrile/isopropanol (1/1) (v:v), centrifuged at 18,000×g for 5 minutes and transferred to vials for UPLCs-MS analysis.
# All data are processed using the TargetLynx™ application manager for MassLynx™ 4.1 software (Waters Corp., Milford, USA). A set of predefined retention time, mass-to-charge ratio pairs, Rt-m/z, corresponding to metabolites included in the analysis are fed into the program. Associated extracted ion chromatograms (mass tolerance window=0.05 Da) are then peak-detected and noise-reduced in both the LC and MS domains such that only true metabolite related features are processed by the software. A list of chromatographic peak areas is then generated for each sample injection and value respect to basal conditions is calculated.
# Average of five values obtained for each peptide in relation to those obtained for basal conditions (without peptide in the medium) are shown in Table 11.
molecule,measurement,setting,value
"Ac-EEMQRRED-NH2 [PEP-23, Ac-Glu-Glu-Met-Gln-Arg-Arg-Glu-Asp-NH2]",NFKB1 fold induction respect to basal conditions,[1],2.58
same,"S. epidermidis (%), normalized percentage respect to basal conditions",[2],20.10%
same,CLDN1 fold induction respect to basal conditions,[3],2.58
"CCCCCCCCCCCCOS(=O)(=O)[O-].[Na+] [SDS, sodium dodecyl sulfate, reference compound]",Fold change with respect to basal condition (biotin fluorescence),[4],1.90
same,Total score (Toluidine Blue staining),[5],4
"Ac-EEMQRKAD-NH2 [PEP-14, Ac-Glu-Glu-Met-Gln-Arg-Lys-Ala-Asp-NH2]",NFKB1 fold induction respect to basal conditions,[1],2.59
same,"S. epidermidis (%), normalized percentage respect to basal conditions",[2],22.18%
same,CLDN1 fold induction respect to basal conditions,[3],2.59
"Ac-EEMQRRAD-NH2 [PEP-3, Ac-Glu-Glu-Met-Gln-Arg-Arg-Ala-Asp-NH2]",Cer_AP48 N-(alpha-hydroxyacyl) phytosphingosines,[6],1.15 fold change
same,Cer_NP48 N-acyl phytosphingosines,[6],1.19 fold change
same,Cer_NP49 N-acyl phytosphingosines,[6],1.14 fold change
same,Cer_NP50 N-acyl phytosphingosines,[6],1.30 fold change
same,Cer_NP51 N-acyl phytosphingosines,[6],1.24 fold change
same,Cer_NS50 N-acyl sphingosines,[6],1.14 fold change
same,Cer_NS51 N-acyl sphingosines,[6],1.10 fold change
same,Cer_NS52 N-acyl sphingosines,[6],1.30 fold change
same,Cer_NdS47 N-acyl dihydrosphingosines,[6],1.20 fold change
same,Cer_NdS48 N-acyl dihydrosphingosines,[6],1.34 fold change
same,Cer_NdS49 N-acyl dihydrosphingosines,[6],1.43 fold change
same,Cer_NdS50 N-acyl dihydrosphingosines,[6],1.68 fold change
same,NFKB1 fold induction respect to basal conditions,[1],2.04
same,"S. epidermidis (%), normalized percentage respect to basal conditions",[2],11.46%
"Ac-EEMQRR-NH2 [PEP-1, Ac-Glu-Glu-Met-Gln-Arg-Arg-NH2]",Cer_AP48 N-(alpha-hydroxyacyl) phytosphingosines,[6],1.21 fold change
same,Cer_NP48 N-acyl phytosphingosines,[6],1.21 fold change
same,Cer_NP49 N-acyl phytosphingosines,[6],1.17 fold change
same,Cer_NP50 N-acyl phytosphingosines,[6],1.18 fold change
same,Cer_NP51 N-acyl phytosphingosines,[6],1.44 fold change
same,Cer_NS50 N-acyl sphingosines,[6],1.20 fold change
same,Cer_NS51 N-acyl sphingosines,[6],1.14 fold change
same,Cer_NS52 N-acyl sphingosines,[6],1.35 fold change
same,Cer_NdS47 N-acyl dihydrosphingosines,[6],1.14 fold change
same,Cer_NdS48 N-acyl dihydrosphingosines,[6],1.21 fold change
same,Cer_NdS49 N-acyl dihydrosphingosines,[6],1.38 fold change
same,Cer_NdS50 N-acyl dihydrosphingosines,[6],1.42 fold change
same,NFKB1 fold induction respect to basal conditions,[1],2.59
same,"S. epidermidis (%), normalized percentage respect to basal conditions",[2],13.63. %
"CCCCCCCCCCCCCC(=O)N[C@@H](CCC(=O)O)C(=O)N[C@@H](CCC(=O)O)C(=O)N[C@@H](CCSC)C(=O)N[C@@H](CCC(N)=O)C(=O)N[C@@H](CCCNC(=N)N)C(=O)N[C@@H](CCCNC(=N)N)C(=O)N[C@@H](C)C(=O)N[C@@H](CCC(=O)O)C(N)=O [PEP-29, Myr-Glu-Glu-Met-Gln-Arg-Arg-Ala-Glu-NH2] (Myristoyl-EEMQRRAE-NH2)",NFKB1 fold induction respect to basal conditions,[1],2.72
same,"S. epidermidis (%), normalized percentage respect to basal conditions",[2],33.02%
"CCCCCCCCCCCCCCCC(=O)N[C@@H](CCC(=O)O)C(=O)N[C@@H](CCC(=O)O)C(=O)N[C@@H](CCSC)C(=O)N[C@@H](CCC(N)=O)C(=O)N[C@@H](CCCNC(=N)N)C(=O)N[C@@H](CCCCN)C(N)=O [PEP-59, Palm-Glu-Glu-Met-Gln-Arg-Lys-NH2] (Palmitoyl-EEMQRK-NH2)",NFKB1 fold induction respect to basal conditions,[1],1.77
same,"S. epidermidis (%), normalized percentage respect to basal conditions",[2],4.63%
"Ac-EEMDRRA-NH2 [PEP-42, Ac-Glu-Glu-Met-Asp-Arg-Arg-Ala-NH2]",NFKB1 fold induction respect to basal conditions,[1],2.70
same,"S. epidermidis (%), normalized percentage respect to basal conditions",[2],12.36%
"Ac-QEMQRRAD-OH [PEP-32, Ac-Gln-Glu-Met-Gln-Arg-Arg-Ala-Asp-OH]",NFKB1 fold induction respect to basal conditions,[1],2.56
same,"S. epidermidis (%), normalized percentage respect to basal conditions",[2],13.89%

# From US20200002377A1, “COMPOUNDS USEFUL FOR THE TREATMENT AND/OR CARE OF THE SKIN, HAIR, NAILS AND/OR MUCOUS MEMBRANES” (LUBRIZOL ADVANCED MATERIALS, INC., priority 2016, published 2020)
